Measured values taken from article PMC8043124 (ACS Infectious Diseases, 2021).

How the values were obtained:
[1] = test system: P. aeruginosa (strain PA14); assay: Checkerboard assay of potentiator-antibiotic pairs; assay type: cell-based, Pseudomonas aeruginosa; conditions: for Antibiotic MIC with WD40 relative to clinical breakpoint: PA14, with WD40, breakpoints for Gram-positive species (EUCAST)
[2] = test system: P. aeruginosa clinical isolates (BWH006, BWH012, BWH013, BWH021, BWH027); assay: Checkerboard assay of potentiator-antibiotic pairs in clinical isolates; assay type: cell-based, Pseudomonas aeruginosa; conditions: for Antibiotic MIC with WD40 relative to clinical breakpoint: 10 μM WD40, MIC95, breakpoints for Gram-positive species (EUCAST); for MIC of antibiotic alone: range over isolates, Figure 6 names MIC95

Antibiotic MIC with WD40 relative to clinical breakpoint [1]	Antibiotic MIC with WD40 relative to clinical breakpoint [2]	MIC of antibiotic alone [2]	MIC of antibiotic alone ([1]; PA14)	SMILES
clinical breakpoints were met	did not meet their clinical breakpoints	512 to 1024 µg/mL		CC(=O)O[C@H]1C[C@@]2(C)[C@@H](C[C@@H](O)[C@H]3[C@@]4(C)CC[C@@H](O)[C@@H](C)[C@@H]4CC[C@@]32C)/C1=C(\CCC=C(C)C)C(=O)O [fusidic acid]
to the clinical breakpoint	below its clinical breakpoint	8 to 16 µg/mL	512 µg/mL	CO[C@H]1/C=C/O[C@@]2(C)Oc3c(C)c(O)c4c(O)c(c(/C=N/N5CCN(C)CC5)c(O)c4c3C2=O)NC(=O)/C(C)=C\C=C\[C@H](C)[C@H](O)[C@@H](C)[C@@H](O)[C@@H](C)[C@H](OC(C)=O)[C@@H]1C [rifampin]
